Here are results for one compound from patent US8143246B2, “1-(4-(pyridin-2-yl)benzyl)imidazolidine-2,4-dione derivatives” (MSD OSS B.V., priority 2008, dated 2012).

Experiment [1] relates to mechanical hyperalgesia induced by complete Freund's adjuvant in rats. The experiment in a line: Mechanical hyperalgesia in the rat (CFA inflammatory pain). The class given is in vivo. The conditions noted are these: for % Attenuation of hyperalgesia (peak effect): p.o., male Wistar rats, Randall-Sellito, 24 h after CFA, mean ± s.e.m. On the procedure:
Mechanical Hyperalgesia in the Rat
In this rat model of inflammatory pain, inflammation is induced by subcutaneous injection of complete Freund's adjuvant (CFA) into the hind paw. The associated mechanical hyperalgesia is quantified by measuring the reduction in paw withdrawal threshold (PWT) to mechanical compression the paw.
Experiments were conducted using male Wistar rats weighing (141-175 g). In brief, the rats' paw withdrawal threshold (PWT) to a mechanical compression of the hind paw was measured (baseline reading) using a Randall-Sellito apparatus (Ugo Basile). A cut-off of 20 g was employed to minimise tissue damage to the paw. The animals were then lightly anaesthetised with isoflurane (1-3%) and complete Freund's adjuvant (0.1 ml per paw) was injected subcutaneously (s.c.) into the plantar surface of the left hind paw. The animals were then returned to their home cage and left for the inflammation to develop. Twenty four hours after CFA injection, PWT's were re-measured (0 min) and immediately after this reading, rats were dosed orally with either vehicle or test compound (4.4-43.8 μmol/kg p.o. of compound 12). Readings were then made at 3 h post administration. Data were plotted as mean±s.e.m. and compared between groups using the Kruskal-Wallis one-way analysis of variance, a non-parametric statistical test. […] The percent attenuation of mechanical hyperalgesia is calculated as follows: […]

In experiment [2] the test system is mechanical allodynia induced by spinal nerve ligation in rats. Put plainly: Rat (Chung) model of neuropathic pain. The class given is in vivo. The conditions noted are these: for Withdrawal threshold (g) at peak effect: p.o., male Wistar rats, von Frey, mean ± s.e.m. On the procedure:
The Rat (Chung) Model of Neuropathic Pain
In this model, mechanical allodynia is induced by tight ligation of the left L5 spinal nerve.
Male Wistar rats (228-301 g body weight at time of surgery) were employed in the study. Rats were placed on an elevated (˜40 cm) mesh floor in perspex boxes and the rats' withdrawal threshold to a mechanical stimulus (calibrated von Frey filaments) was measured using filaments of increasing force (2.6-167 mN) as described above. The von Frey filaments were applied to the plantar surface of the paw and threshold response determined using the up and down method. A positive response was noted if the paw was sharply withdrawn. A cut-off of 15 g was selected as the upper limit for testing. Following baseline measurements each animal was anaesthetised and the L5 spinal nerve tightly ligated. The animals were allowed to recover from the surgery for a period of at least three days. On the day of drug administration the paw withdrawal thresholds were re-measured (0 min). Immediately after this reading, the rats were dosed orally with vehicle or test compound and readings measured at various time points after compound administration.
Data were expressed as mean±s.e.m. Statistical analysis was performed using the Kruskal-Wallis one-way analysis of variance, a non-parametric statistical test. Each of the treatment groups were then compared against the vehicle group, using the non-parametric Dunn's test.

Take `CC(C)CN1C(=O)CN(Cc2ccc(-c3cccc(CN4CCCCC4)n3)cc2)C1=O` [Example 12, 3-Isobutyl-1-(4-(6-(piperidin-1-ylmethyl)pyridin-2-yl)benzyl)imidazolidine-2,4-dione]: the “Effect on mechanical hyperalgesia induced by CFA” value in experiment [1] (oral, 4.4-43.8 μmol/kg) is reported as “reversed mechanical hyperalgesia induced by CFA in a dose-dependent fashion”. Also, the MED in experiment [1] (oral, CFA-induced mechanical hyperalgesia) is 13.2 µmol/kg. Besides, the “% Attenuation of hyperalgesia (peak effect)” value in experiment [1] (4.4 μmol/kg) was 58.64 ± 27.32%; in experiment [1] (13.2 μmol/kg, p ≦ 0.01 vs vehicle), 69.70 ± 12.88 %; in experiment [1] (43.8 μmol/kg, p ≦ 0.001 vs vehicle), 116.74 ± 23.78 %. In experiment [2] (oral, 120 and 180 min post drug administration), the “Effect on mechanical allodynia” value is reported as “attenuated mechanical allodynia in a dose-dependent fashion”. Moreover, the “Minimum effective dose (MED)” value in experiment [2] (oral, mechanical allodynia) turned out to be 43.8 µmol/kg. Further, the “Withdrawal threshold (g) at peak effect” value in experiment [2] (4.4 μmol/kg) is given as 2.40 ± 0.64 g; in experiment [2] (13.2 μmol/kg) it was 4.32 ± 1.63 g; in experiment [2] (43.8 μmol/kg, p ≦ 0.01 vs vehicle), 8.97 ± 2.21 g.
